Our source for the IC50 values is US10323000B2, “Indole derivatives and their use in neurodegenerative diseases” (priority 2014, dated 2019).

Where only a bound is given, the exact number is not on record here.

As usually defined, the IC50 is the midpoint of a concentration-inhibition curve.

The target of one experiment is human P2X7 receptor (Homo sapiens (Human), UniProt Q99572). The experiment can be described thus: Pore permeation assay (YO PRO dye uptake). Format: cell-based.
Chain of human P2X7 receptor (Q99572 whole entry): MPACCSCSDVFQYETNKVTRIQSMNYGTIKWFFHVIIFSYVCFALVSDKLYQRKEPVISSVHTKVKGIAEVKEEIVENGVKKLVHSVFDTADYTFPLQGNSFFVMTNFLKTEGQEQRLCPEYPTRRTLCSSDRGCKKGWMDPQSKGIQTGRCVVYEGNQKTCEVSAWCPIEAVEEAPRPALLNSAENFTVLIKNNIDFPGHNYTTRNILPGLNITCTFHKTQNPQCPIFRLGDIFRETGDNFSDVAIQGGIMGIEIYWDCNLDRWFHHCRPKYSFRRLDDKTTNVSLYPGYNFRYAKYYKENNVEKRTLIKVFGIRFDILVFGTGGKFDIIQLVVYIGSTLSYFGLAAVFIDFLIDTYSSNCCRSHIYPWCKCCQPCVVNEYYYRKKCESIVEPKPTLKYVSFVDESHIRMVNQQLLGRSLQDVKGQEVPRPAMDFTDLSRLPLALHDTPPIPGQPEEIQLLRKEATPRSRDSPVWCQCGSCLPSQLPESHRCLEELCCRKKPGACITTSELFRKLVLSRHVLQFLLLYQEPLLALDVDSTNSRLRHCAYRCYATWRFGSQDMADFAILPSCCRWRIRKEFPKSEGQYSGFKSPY
Conditions: not given
Here is the method:
Agonist-induced pore formation was determined by measuring cellular uptake of YO PRO fluorescence dye in HEK293 transfected with human P2X7 receptor. A HEK293 cell over expressing human P2X7 was harvested using HQTase reagent to detach the cells from T75 cm flask. The harvested cells are centrifuged @1200 rpm for 5 min at room temperature. The viability of cells was determined by Trypan blue dye and the cells are plated @10,000 cell/well in 50 ul volume in a 384W BD Poly lysine coated plate and incubated overnight at 37 C. […] The plate was centrifuged at 1000 rpm for 5 seconds and incubated at room temperature for 30 minutes. The uptake of YO PRO dye into the cells was measured using Envision Fluorescence plate reader instrument (Perkin Elmer).
For the molecule `O=C(NCC1CCC(F)(F)CC1)c1cn(CCC(F)F)c2cccc(Cl)c12` [Compound 11, 4-Chloro-1-(3,3-difluoro-propyl)-1H-indole-3-carboxylic acid (4,4-di fluoro-cyclohexyl methyl)-amide], the IC50 fell in the range of 10 to 100 nM.
`COCCn1cc(C(=O)NC[C@]2(O)CCC[C@H](C)C2)c2c(Cl)cccc21` [Compound 14, 4-Chloro-1-(2-methoxy-ethyl)-1H-indole-3-carboxylic acid ((1S,3S)-1-hydroxy-3-methyl-cyclohexylmethyl)-amide] displayed an IC50 of 10 to 100 nM.
Consider `COCCn1cc(C(=O)NC[C@@]2(O)CCC[C@@H](C)C2)c2c(Cl)cccc21` [Compound 15, 4-Chloro-1-(2-methoxy-ethyl)-1H-indole-3-carboxylic acid ((1R,3R)-1-hydroxy-3-methyl-cyclohexylmethyl)-amide], for which the IC50 was 10 to 100 nM.
Same read-out and setting: as for `COCCn1cc(C(=O)NCCC2(O)CCCC2)c2c(Cl)cccc21` [Compound 16, 4-Chloro-1-(2-methoxy-ethyl)-1H-indole-3-carboxylic acid [2-(1-hydroxy-cyclopentyl)-ethyl]-amide], the figure is 500 to 999 nM; as for `COCCn1cc(C(=O)NCc2ccccc2C(F)(F)F)c2c(Cl)cccc21` [Compound 24, 4-Chloro-1-(2-methoxy-ethyl)-1H-indole-3-carboxylic acid 2-trifluoromethyl-benzylamide], 500 to 999 nM; as for `COCCn1cc(C(=O)NCc2ccccc2F)c2c(Cl)cccc21` [Compound 25, 4-Chloro-1-(2-methoxy-ethyl)-1H-indole-3-carboxylic acid 2-fluoro-benzylamide], 500 to 999 nM.
On to `COCCn1cc(C(=O)NC2COc3ccccc3C2)c2c(Cl)cccc21` (centres unmarked) [Compound 29, 4-Chloro-1-(2-methoxy-ethyl)-1H-indole-3-carboxylic acid chroman-3-ylamide], for which the half-maximal inhibitory concentration (IC50) is 101 to 500 nM.
As to `CC1CC(O)(CNC(=O)c2cn(C3COC3)c3cccc(Cl)c23)CCC1(F)F` (centres unmarked) [Compound 46, 4-chloro-N-((4,4-difluoro-1-hydroxy-3-methylcyclohexyl)methyl)-1-(oxetan-3-yl)-1H-indole-3-carboxamide], the IC50 was 101 to 500 nM.
The molecule `CC(O)(CNC(=O)c1cn(C2COC2)c2cccc(Cl)c12)C1CCCC1` (centres unmarked) [Compound 49, 4-Chloro-1-oxetan-3-yl-1H-indole-3-carboxylic acid (2-cyclopentyl-2-hydroxy-propyl)-amide] had an IC50 of 500 to 999 nM.
As for `CC(C)(CNC(=O)c1cn(C2COC2)c2cccc(Cl)c12)C1CCCC1` [Compound 50, 4-Chloro-1-oxetan-3-yl-1H-indole-3-carboxylic acid (2-cyclopentyl-2-methyl-propyl)-amide], the half-inhibitory concentration (IC50) is 101 to 500 nM.
Take `O=C(N[C@@H](C1CCCCC1)C(F)(F)F)c1cn(C2COC2)c2cccc(Cl)c12` [Compound 52, 4-Chloro-1-oxetan-3-yl-1H-indole-3-carboxylic acid ((S)-1-cyclohexyl-2,2,2-trifluoro-ethyl)-amide]: the IC50 was in the range of 500 to 999 nM.
`O=C(NC1(C2CCCCC2)CC1)c1cn(C2COC2)c2cccc(Cl)c12` [Compound 55, 4-Chloro-1-oxetan-3-yl-1H-indole-3-carboxylic acid (1-cyclohexyl-cyclopropyl)-amide] registered a half-maximal inhibitory concentration (IC50) of 101 to 500 nM.
Same read-out and setting: then `O=C(NCC1(O)CCCC2(CC2)C1)c1cn(C2COC2)c2cccc(Cl)c12` (centres unmarked) [Compound 57, 4-chloro-N-((5-hydroxyspiro[2.5]octan-5-yl)methyl)-1-(oxetan-3-yl)-1H-indole-3-carboxamide], with 101 to 500 nM.
On the same count and under the same terms, as for `O=C(NCC(F)F)c1cn(C2COC2)c2cccc(Cl)c12` [Compound 76, 4-Chloro-1-oxetan-3-yl-1H-indole-3-carboxylic acid (2,2-difluoro-ethyl)-amide], the figure is more than 1000 nM; as for `CC1CC(O)(CNC(=O)c2cn(C3CCCO3)c3cccc(Cl)c23)CCC1(F)F` (centres unmarked) [Compound 97, 4-chloro-N-((4,4-difluoro-1-hydroxy-3-methylcyclohexyl)methyl)-1-(tetrahydrofuran-2-yl)-1H-indole-3-carboxamide], 101 to 500 nM; as for `O=C(NCC1CCC(F)(F)CC1)c1cn(C2CCCO2)c2cccc(Cl)c12` (centres unmarked) [Compound 99, 4-chloro-N-((4,4-difluorocyclohexyl)methyl)-1-(tetrahydrofuran-2-yl)-1H-indole-3-carboxamide], 101 to 500 nM.
The molecule `CC(C)(CNC(=O)c1cn(C2CCOC2)c2cccc(Cl)c12)C1CCCC1` (centres unmarked) [Compound 103, 4-Chloro-1-(tetrahydro-furan-3-yl)-1H-indole-3-carboxylic acid (2-cyclopentyl-2-methyl-propyl)-amide] displayed an IC50 of 101 to 500 nM.
Still for that read-out and setting: as for `O=C(NCC1(O)CCC(F)(F)CC1)c1cn(C2CCOC2)c2cccc(Cl)c12` (centres unmarked) [Compound 104, 4-Chloro-1-(tetrahydro-furan-3-yl)-1H-indole-3-carboxylic acid (4,4-difluoro-1-hydroxy-cyclohexylmethyl)-amide], the figure is 101 to 500 nM; as for `O=C(NC(CCO)C1CCCCC1)c1cn(C2CCOC2)c2cccc(Cl)c12` (centres unmarked) [Compound 110, 4-Chloro-1-(tetrahydro-furan-3-yl)-1H-indole-3-carboxylic acid (1-cyclohexyl-3-hydroxy-propyl)-amide], 101 to 500 nM.

Staying with this experiment, now noted: HEK293 transfected with human P2X7; BzATP 10 uM; YO PRO dye uptake; read-out: hP2X7 IC50.
Consider “4-Chloro-1-(tetrahydro-furan-3-yl)-1H-indole-3-carboxylic acid (2-cyclopentyl-2-hydroxy-propyl)-amide [Compound 102]”, for which the concentration for half-maximal inhibition (IC50) was more than 1000 nM.
On the same count and under the same terms, as for `COCCn1cc(C(=O)NCc2cccc3c2OCCO3)c2c(Cl)cccc21` [Compound 23, 4-Chloro-1-(2-methoxy-ethyl)-1H-indole-3-carboxylic acid (2,3-dihydro-benzo[1,4]dioxin-5-ylmethyl)-amide], the figure is more than 1000 nM.
Same read-out and setting: as for `COCCn1cc(C(=O)NCc2ccc(C(F)(F)F)cc2)c2c(Cl)cccc21` [Compound 26, 4-Chloro-1-(2-methoxy-ethyl)-1H-indole-3-carboxylic acid 4-trifluoro methyl-benzylamide], the figure is more than 1000 nM; as for `COCCn1cc(C(=O)NCc2ccc3c(c2)OCO3)c2c(Cl)cccc21` [Compound 27, 4-Chloro-1-(2-methoxy-ethyl)-1H-indole-3-carboxylic acid (benzo [1,3]dioxol-5-ylmethyl)-amide], more than 1000 nM.
Turning to `COCCn1cc(C(=O)NCc2ccco2)c2c(Cl)cccc21` [Compound 28, 4-Chloro-1-(2-methoxy-ethyl)-1H-indole-3-carboxylic acid (furan-2-ylmethyl)-amide], the concentration for half-maximal inhibition (IC50) is more than 1000 nM.
Turning to `COCCn1cc(C(=O)NCc2nc3ccccc3s2)c2c(Cl)cccc21` [Compound 31, N-(benzo[d]thiazol-2-ylmethyl)-4-chloro-1-(2-methoxyethyl)-1H-indole-3-carboxamide], the half-inhibitory concentration (IC50) is more than 1000 nM.
As to `O=C(NC(C1CCCC1)C(F)(F)F)c1cn(C2COC2)c2cccc(Cl)c12` (centres unmarked) [Compound 42, 4-chloro-N-(1-cyclopentyl-2,2,2-trifluoroethyl)-1-(oxetan-3-yl)-1H-indole-3-carboxamide], the IC50 is more than 1000 nM.
The same measure, in the same setting: as for `O=C(NC(C1CCCCC1)C(F)(F)F)c1cn(C2COC2)c2cccc(Cl)c12` (centres unmarked) [Compound 43, 4-chloro-N-(1-cyclohexyl-2,2,2-trifluoroethyl)-1-(oxetan-3-yl)-1H-indole-3-carboxamide], the figure is more than 1000 nM.
On the same count and under the same terms, as for `O=C(NCC1(O)CCCC(C(F)(F)F)C1)c1cn(C2COC2)c2cccc(Cl)c12` (centres unmarked) [Compound 47, 4-chloro-N-((1-hydroxy-3-(trifluoromethyl)cyclohexyl)methyl)-1-(oxetan-3-yl)-1H-indole-3-carboxamide], the figure is more than 1000 nM.
Still for that read-out and setting: then `CC(C)(NC(=O)c1cn(C2COC2)c2cccc(Cl)c12)[C@]12C[C@H]3C[C@H](C[C@H](C3)C1)C2` [Compound 54, 4-Chloro-1-oxetan-3-yl-1H-indole-3-carboxylic acid (1-adamantan-1-yl-1-methyl-ethyl)-amide], with 101 to 500 nM; and `O=C(NC(c1cccs1)C1CCCCC1)c1cn(C2COC2)c2cccc(Cl)c12` (centres unmarked) [Compound 60, 4-Chloro-1-oxetan-3-yl-1H-indole-3-carboxylic acid (cyclohexyl-thiophen-2-yl-methyl)-amide], with more than 1000 nM; and `C[C@@H](NC(=O)c1cn(C2COC2)c2cccc(Cl)c12)[C@@]12C[C@@H]3C[C@@H](C[C@@](O)(C3)C1)C2` [Compound 61, 4-Chloro-1-oxetan-3-yl-1H-indole-3-carboxylic acid [(3-hydroxy-adamantan-1-yl)-ethyl]-amide], with 500 to 999 nM.
For the molecule `O=C(N[C@@H](CO)C1CCCCC1)c1cn(C2COC2)c2cccc(Cl)c12` [Compound 63, 4-Chloro-1-oxetan-3-yl-1H-indole-3-carboxylic acid ((R)-1-cyclohexyl-2-hydroxy-ethyl)-amide], the half-maximal inhibitory concentration (IC50) is more than 1000 nM.
On the same count and under the same terms, as for `CC1(CCNC(=O)c2cn(C3COC3)c3cccc(Cl)c23)OCCO1` [Compound 71, 4-Chloro-1-oxetan-3-yl-1H-indole-3-carboxylic acid [2-(2-methyl-dioxolan-2-yl)-ethyl]-amide], the figure is more than 1000 nM.
As to `O=C(NCCC(F)(F)F)c1cn(C2COC2)c2cccc(Cl)c12` [Compound 77, 4-Chloro-1-oxetan-3-yl-1H-indole-3-carboxylic acid (3,3,3-trifluoro-propyl)-amide], the half-maximal inhibitory concentration (IC50) was more than 1000 nM.
Take `CCOC(C)CNC(=O)c1cn(C2COC2)c2cccc(Cl)c12` (centres unmarked) [Compound 78, 4-Chloro-1-oxetan-3-yl-1H-indole-3-carboxylic acid (2-ethoxy-propyl)-amide]: the half-maximal inhibitory concentration (IC50) was more than 1000 nM.
